# Experiments:
# Hepatitis C virus [1] = test: Ratio of EC50 for HCV1b Con1 infected in human HuH7 cells in presence of 40% human plasma to EC50 for HCV1b Con1 infected in human HuH7 cells in absence of 40% human plasma; assay type: functional, Hepacivirus hominis, isolate Con1, Huh-7
# [2] = Lipophilicity, log D of the compound at pH 7.4 by HPLC analysis; assay type: physicochemical; conditions: buffer
# Hepatitis C virus [3] = test: Antiviral activity against HCV1b Con1 infected in human HuH7 cells assessed as inhibition of viral replication after 4 days by luciferase reporter gene assay; assay type: functional, organism-based, Hepacivirus hominis; conditions: isolate Con1, Huh-7, 96 h
# [4] = Tmax in rat at 3 mg/kg, po; assay type: ADME, organism-based; design: dose 3 mg/kg, route oral; conditions: in vivo
# [5] = Clearance in rat at 3 mg/kg, iv; assay type: ADME, organism-based; design: dose 3 mg/kg, route intravenous; conditions: in vivo
# Hepatitis C virus [6] = test: Ratio of EC50 for HCV1a H77 infected in human HuH7 cells in presence of 40% human plasma to EC50 for HCV1a H77 infected in human HuH7 cells in absence of 40% human plasma; assay type: functional, Hepacivirus hominis, genotype 1a H77, Huh-7
# [7] = AUC in rat at 3 mg/kg, po; assay type: ADME, organism-based; design: dose 3 mg/kg, route oral; conditions: plasma
# [8] = Oral bioavailability in rat at 3 mg/kg; assay type: ADME, organism-based; conditions: in vivo
# [9] = Half life in rat at 3 mg/kg, po; assay type: ADME, organism-based; design: dose 3 mg/kg, route oral; conditions: in vivo
# [10] = Kinetic solubility of the compound in 10 mM of phosphate buffer at pH 7.2 by CLND method; assay type: physicochemical; conditions: read-out: Kinetic_solubility
# [11] = Volume of distribution at steady state in rat at 3 mg/kg, iv; assay type: ADME, organism-based; design: dose 3 mg/kg, route intravenous; conditions: in vivo, read-out: Vdss
# [12] = Metabolic stability in rat liver microsomes assessed as compound remaining after 30 mins; assay type: ADME; conditions: read-out: Stability
# [13] = Half life in rat at 3 mg/kg, iv; assay type: ADME, organism-based; design: dose 3 mg/kg, route intravenous; conditions: in vivo
# Hepatitis C virus [14] = test: Antiviral activity against HCV1b Con1 infected in human HuH7 cells assessed as inhibition of viral replication after 4 days by luciferase reporter gene assay in presence of 40% human plasma; assay type: functional, organism-based, Hepacivirus hominis; conditions: isolate Con1, Huh-7, Plasma, 96 h
# [15] = Metabolic stability in human liver microsomes assessed as compound remaining after 30 mins; assay type: ADME; conditions: read-out: Stability
# [16] = Cmax in rat at 3 mg/kg, po; assay type: ADME, organism-based; design: dose 3 mg/kg, route oral; conditions: in vivo
# Hepatitis C virus [17] = test: Antiviral activity against HCV1a H77 infected in human HuH7 cells assessed as inhibition of viral replication after 4 days by luciferase reporter gene assay; assay type: functional, organism-based, Hepacivirus hominis; conditions: genotype 1a H77, Huh-7, 96 h
# Hepatitis C virus [18] = test: Antiviral activity against HCV1a H77 infected in human HuH7 cells assessed as inhibition of viral replication after 4 days by luciferase reporter gene assay in presence of 40% human plasma; assay type: functional, organism-based, Hepacivirus hominis; conditions: genotype 1a H77, Huh-7, Plasma, 96 h
# [19] = Half life in dog at 1 mg/kg, iv; assay type: ADME, organism-based, Canis lupus familiaris; design: dose 1 mg/kg, route intravenous; conditions: in vivo
# [20] = Volume of distribution at steady state in dog at 1 mg/kg, iv; assay type: ADME, organism-based, Canis lupus familiaris; design: dose 1 mg/kg, route intravenous; conditions: in vivo, read-out: Vdss
# [21] = Tmax in dog at 2.5 mg/kg, po; assay type: ADME, organism-based, Canis lupus familiaris; design: dose 2.5 mg/kg, route oral; conditions: in vivo
# [22] = Clearance in dog at 1 mg/kg, iv; assay type: ADME, organism-based, Canis lupus familiaris; design: dose 1 mg/kg, route intravenous; conditions: in vivo
# [23] = Half life in dog at 2.5 mg/kg, po; assay type: ADME, organism-based, Canis lupus familiaris; design: dose 2.5 mg/kg, route oral; conditions: in vivo
# [24] = AUC in dog at 2.5 mg/kg, po; assay type: ADME, organism-based, Canis lupus familiaris; design: dose 2.5 mg/kg, route oral; conditions: plasma
# [25] = Cmax in dog at 2.5 mg/kg, po; assay type: ADME, organism-based, Canis lupus familiaris; design: dose 2.5 mg/kg, route oral; conditions: in vivo
# [26] = Oral bioavailability in dog at 2.5 mg/kg; assay type: ADME, organism-based, Canis lupus familiaris; conditions: in vivo
Structure (SMILES),Ratio EC50 (Hepatitis C virus [1]),logD [2],EC50 (Hepatitis C virus [3]) [nM],Tmax [4] [h],clearance [5] [mL/min/kg],Ratio EC50 (Hepatitis C virus [6]),AUC [7] [ng·h/mL],bioavailability [8] [%],half-life [9] [h],solubility kinetic [10] [µM],Vd [11] [L/kg],remaining at 0.5 h [12] [%],half-life [13] [h],EC50 (Hepatitis C virus [14]) [nM],remaining at 0.5 h [15] [%],Cmax [16] [ng/mL],EC50 (Hepatitis C virus [17]) [nM],EC50 (Hepatitis C virus [18]) [nM],other results
COC(=O)N[C@H](C(=O)N1CCC[C@H]1C(=O)Nc1ccc([C@@H]2CC[C@@H](c3ccc(NC(=O)[C@@H]4CCCN4C(=O)[C@@H](NC(=O)OC)[C@@H](C)OC)cc3)N2c2ccc(F)cc2)cc1)[C@@H](C)OC,6,3,0.086,0.7,56.7,8,120,14,1.1,9.6,1.3,47,0.6,0.539,54,70,0.168,1.4,–
COC(=O)N[C@H](C(=O)N1CCC[C@H]1C(=O)Nc1ccc([C@H]2CC[C@H](c3ccc(NC(=O)[C@@H]4CCCN4C(=O)[C@@H](NC(=O)OC)[C@@H](C)OC)cc3)N2c2ccc(F)cc2)cc1)[C@@H](C)OC,10,3,0.134,0.5,45,2,170,15,0.9,7.7,0.9,46,0.4,1.33,48,120,0.794,1.95,–
COC(=O)N[C@H](C(=O)N1CCC[C@H]1C(=O)Nc1ccc([C@@H]2CC[C@@H](c3ccc(NC(=O)[C@@H]4CCCN4C(=O)[C@@H](NC(=O)OC)[C@H]4CCOC4)cc3)N2c2ccc(F)cc2)cc1)[C@H]1CCOC1,24,3.2,0.054,0.4,31.7,14,20,1.5,0.6,9.7,0.5,42,0.9,1.27,41,20,0.102,1.39,–
COC(=O)N[C@H](C(=O)N1CCC[C@H]1C(=O)Nc1ccc([C@H]2CC[C@H](c3ccc(NC(=O)[C@@H]4CCCN4C(=O)[C@@H](NC(=O)OC)[C@H]4CCOC4)cc3)N2c2ccc(F)cc2)cc1)[C@H]1CCOC1,9,3.2,0.106,0.3,66.7,7,20,3.2,0.5,8.5,1.5,46,0.8,0.917,47,30,0.281,1.92,–
COC(=O)N[C@H](C(=O)N1CCC[C@H]1C(=O)Nc1ccc([C@@H]2CC[C@@H](c3ccc(NC(=O)[C@@H]4CCCN4C(=O)[C@@H](NC(=O)OC)C(C)C)cc3)N2c2ccc(C(F)(F)F)cc2)cc1)C(C)C,10,4.8,0.0071,2.2,20,11,500,16,12.1,3.4,8.9,56,6,0.072,52,30,0.057,0.65,half-life [19]: 6 h; Vd [20]: 1.3 L/kg; Tmax [21]: 4.7 h; clearance [22]: 2.67 mL/min/kg; half-life [23]: 5.8 h; AUC [24]: 850 ng·h/mL; Cmax [25]: 70 ng/mL; bioavailability [26]: 5.5%
COC(=O)N[C@H](C(=O)N1CCC[C@H]1C(=O)Nc1ccc([C@H]2CC[C@H](c3ccc(NC(=O)[C@@H]4CCCN4C(=O)[C@@H](NC(=O)OC)C(C)C)cc3)N2c2ccc(C(F)(F)F)cc2)cc1)C(C)C,12,4.9,0.0062,1.5,4.83,9,1360,13,4.9,3.2,1.3,58,4.2,0.077,58,200,0.299,2.55,half-life [19]: 4.4 h; Vd [20]: 1.5 L/kg; Tmax [21]: 1.7 h; clearance [22]: 4.83 mL/min/kg; half-life [23]: 5.5 h; AUC [24]: 370 ng·h/mL; Cmax [25]: 50 ng/mL; bioavailability [26]: 4.2%
COC(=O)N[C@H](C(=O)N1CCC[C@H]1C(=O)Nc1ccc([C@H]2CC[C@H](c3ccc(NC(=O)[C@@H]4CCCN4C(=O)[C@@H](NC(=O)OC)C(C)C)cc3)N2c2ccc(C(C)(C)C)cc2)cc1)C(C)C,10,5.2,0.0088,4.7,7.17,7,220,3.1,8.6,1.8,2.2,65,5.5,0.09,–,20,0.138,0.986,–
COC(=O)N[C@H](C(=O)N1CCC[C@H]1C(=O)Nc1ccc([C@@H]2CC[C@@H](c3ccc(NC(=O)[C@@H]4CCCN4C(=O)[C@@H](NC(=O)OC)C(C)C)cc3)N2c2ccc(F)cc2)cc1)C(C)C,15,4.6,0.012,1,15,9,750,22,3,4.1,2.4,49,2.6,0.184,44,190,0.396,3.68,–

# — ChEMBL document CHEMBL3124779, “Discovery of ABT-267, a pan-genotypic inhibitor of HCV NS5A” (J Med Chem, 2014)
